Experimental data as given in patent publication US9474790B2, “Stable, protracted GLP-1/glucagon receptor co-agonists for medical use” (Novo Nordisk A/S, priority 2013, dated 2016).
Numbered stars: 1 amine (or outer) side, 2 acyl side, 3 side chain; on linkers, the order of the positions; unused ones are H or OH. Square brackets hold non-standard residues; d marks the D form. Side chains are listed from the residue outwards. Peptide text beside a SMILES is read from it. * marks the point of attachment. C18 diacid = O=C(O)CCCCCCCCCCCCCCCCC(=O)*; γGlu = O=C(O)[C@H](CCC(=O)[*:2])N[*:1]; AEEA = NCCOCCOCC(=O)O; Aib = CC(C)(N)C(=O)O

Test system: DIO mice
Experiment: In vivo test in diet-induced obese (DIO) mice: body weight and blood glucose
Design: species or system c57bl/6J mice
Details: for Percent BW of baseline at week 5 (mean ± SD): s.c. once daily 5 weeks, co-agonists 5 then 10 nmol/kg, liraglutide 100 nmol/kg
Description: The purpose of this experiment was to investigate effect of the glucagon-GLP-1R co-agonists from Example 8 and Example 12 on body weight and blood glucose in vivo in DIO mice. Liraglutide (a human GLP-1 analogue marketed by Novo Nordisk NS under the brand name VictozaTM) was included for comparison. Male […]/6J mice obtained from Jackson Lab (USA) were fed a high fat diet (Research Diets D12451, 45% kcal fat) to obtain approximately 50% overweight compared to age-matched lean control mice. The DIO mice are characterized by normoglycemia, insulin resistance and obesity. […] The co-agonists, i.e. the glucagon derivatives, were dissolved in 50 mM Na2HPO4, 145 mM NaCl og 0.05% Tween 80, pH 7.4, while liraglutide was diluted from 6 mg/ml VictozaTM pens in DPBS buffer (Invitrogen) containing 0.5% rat serum albumin. Vehicle treated animals received 50 mM Na2HPO4, 145 mM NaCl og 0.05% Tween 80, pH 7.4. Compounds and vehicle were dosed (1 ml/kg) for 5 weeks s.c. once daily just prior to lights out. For the first half of the study co-agonists were administered at a dose of 5 nmol/kg and for the second half of the study co-agonists were administered at a dose of 10 nmol/kg. For comparison, liraglutide at a dose of 100 nmol/kg, likewise dosed s.c. once daily, was included. Body weight was monitored before dosing, daily during the dosing period. Non-fasted blood glucose was measured on the day of initiation of dosing and weekly during the dosing period, prior to dosing. Blood for measurement of blood glucose was taken from the tail tip capillary and blood glucose was measured using a glucose analyzer (Biosen 5040) based on the glucose oxidase method. The body weight reduction/body weight at the end of the 5 week treatment period and area under the blood glucose curve during the five week treatment period are given in the tables below.

Row | SMILES | Percent BW of baseline at week 5 (mean ± SD) | lowering of body weight in vivo (5 weeks s.c. once daily)
1 | CC(C)C[C@H](NC(=O)[C@H](CC(C)C)NC(=O)[C@H](Cc1c[nH]c2ccccc12)NC(=O)[C@H](CCC(N)=O)NC(=O)[C@@H](NC(=O)[C@H](Cc1ccccc1)NC(=O)[C@H](CCC(=O)O)NC(=O)[C@H](CCC(N)=O)NC(=O)[C@H](C)NC(=O)[C@H](C)NC(=O)[C@H](CCCCN)NC(=O)[C@H](CO)NC(=O)[C@H](CC(=O)O)NC(=O)[C@H](CC(C)C)NC(=O)[C@H](Cc1ccc(O)cc1)NC(=O)[C@H](CCCCN)NC(=O)[C@H](CO)NC(=O)[C@H](CC(C)C)NC(=O)[C@H](CC(=O)O)NC(=O)[C@H](CO)NC(=O)[C@@H](NC(=O)[C@H](Cc1ccccc1)NC(=O)[C@@H](NC(=O)CNC(=O)[C@H](CCC(N)=O)NC(=O)C(C)(C)NC(=O)[C@@H](N)Cc1c[nH]cn1)[C@@H](C)O)[C@@H](C)O)C(C)C)C(=O)N[C@@H](CC(N)=O)C(=O)N[C@@H](CCCCNC(=O)CC[C@H](NC(=O)CC[C@H](NC(=O)COCCOCCNC(=O)COCCOCCNC(=O)CC[C@H](NC(=O)CCCCCCCCCCCCCCCCC(=O)O)C(=O)O)C(=O)O)C(=O)O)C(N)=O [Example 8, N^ε29-[(4S)-4-carboxy-4-[[(4S)-4-carboxy-4-[[2-[2-[2-[[2-[2-[2-[[(4S)-4-carboxy-4-(17-carboxyheptadecanoylamino)butanoyl]amino]ethoxy]ethoxy]acetyl]amino]ethoxy]ethoxy]acetyl]amino]butanoyl]amino]butanoyl]-[Aib2,Leu10,Lys17,Ala18,Glu21,Leu27,Lys29]-Glucagon amide] (H-H[Aib]QGTFTSDLSKYLDSKAAQEFVQWLLNK([γGlu-γGlu-AEEA-AEEA-γGlu-C18 diacid])-NH2; N-terminus assumed) | 88% ± 8% | 
2 | CC(C)C[C@H](NC(=O)[C@H](CC(C)C)NC(=O)[C@H](Cc1c[nH]c2ccccc12)NC(=O)[C@H](CCC(N)=O)NC(=O)[C@@H](NC(=O)[C@H](Cc1ccccc1)NC(=O)[C@H](CCC(=O)O)NC(=O)[C@H](CCCNC(=N)N)NC(=O)[C@H](C)NC(=O)[C@H](CCCNC(=N)N)NC(=O)[C@H](CCCNC(=N)N)NC(=O)[C@H](CO)NC(=O)[C@H](CC(=O)O)NC(=O)[C@H](CC(C)C)NC(=O)[C@H](Cc1ccc(O)cc1)NC(=O)[C@H](CCCCN)NC(=O)[C@H](CO)NC(=O)[C@H](CC(C)C)NC(=O)[C@H](CC(=O)O)NC(=O)[C@H](CO)NC(=O)[C@@H](NC(=O)[C@H](Cc1ccccc1)NC(=O)[C@@H](NC(=O)CNC(=O)[C@H](CCC(N)=O)NC(=O)C(C)(C)NC(=O)[C@@H](N)Cc1c[nH]cn1)[C@@H](C)O)[C@@H](C)O)C(C)C)C(=O)N[C@@H](CC(N)=O)C(=O)N[C@@H](CCCCNC(=O)CC[C@H](NC(=O)CC[C@H](NC(=O)COCCOCCNC(=O)COCCOCCNC(=O)CC[C@H](NC(=O)CCCCCCCCCCCCCCCCC(=O)O)C(=O)O)C(=O)O)C(=O)O)C(N)=O [Example 12, N^ε29-[(4S)-4-carboxy-4-[[(4S)-4-carboxy-4-[[2-[2-[2-[[2-[2-[2-[[(4S)-4-carboxy-4-(17-carboxyheptadecanoylamino)butanoyl]amino]ethoxy]ethoxy]acetyl]amino]ethoxy]ethoxy]acetyl]amino]butanoyl]amino]butanoyl]-[Aib2,Leu10,Arg20,Glu21,Leu27,Lys29]-Glucagon amide] (H-H[Aib]QGTFTSDLSKYLDSRRAREFVQWLLNK([γGlu-γGlu-AEEA-AEEA-γGlu-C18 diacid])-NH2) | 75% ± 8% | tends to be superior to liraglutide alone
